The record followed here is US10130615B2, “Benzomorphan analogs and the use thereof” (priority 2014, dated 2018).

The target in assay [1] is T1, μ-opioid receptor (Homo sapiens, UniProt P35372). The experiment in a line: μ-opioid receptor GTPγS functional assay, U2OS cells. Conditions: for Emax: read-out: GTPγS μ Emax.
In assay [2] the target is T1, μ-opioid receptor. The experiment in a line: cell-based. More on the design: purchased Perkin Elmer, Shelton, Conn. Conditions: U2OS cells; for EC50: read-out: β-Arr2 μ EC50; for Emax: read-out: β-Arr2 μ Emax.
In assay [3] the target is T1, μ-opioid receptor. The experiment in a line: biochemical. The note with it: HEK-293 or CHO cells; for EC50: read-out: GTPγS μ EC50; for Emax: relative to DAMGO, read-out: GTPγS μ Emax. Also noted: purchased Perkin Elmer, Shelton, Conn; host or cells: HEK-293 or CHO.
The target in another assay is κ-opioid receptor (Homo sapiens, UniProt P41145). The experiment in a line: κ-opioid receptor GTPγS functional assay, U2OS cells. The class given is biochemical. Also noted: expressed in transfected cells; host or cells: U-2 OS. Conditions: U2OS cells; for EC50: read-out: GTPγS κ EC50. Here is the method:
Plates were incubated for 30 min at a temperature of about 25° C. with shaking.

As a reminder, the EC50 is the concentration at which the effect is half-maximal. One may read the Emax as the greatest response seen or fitted, relative to the assay's reference.

T1 sequence (P35372 whole entry, species assumed): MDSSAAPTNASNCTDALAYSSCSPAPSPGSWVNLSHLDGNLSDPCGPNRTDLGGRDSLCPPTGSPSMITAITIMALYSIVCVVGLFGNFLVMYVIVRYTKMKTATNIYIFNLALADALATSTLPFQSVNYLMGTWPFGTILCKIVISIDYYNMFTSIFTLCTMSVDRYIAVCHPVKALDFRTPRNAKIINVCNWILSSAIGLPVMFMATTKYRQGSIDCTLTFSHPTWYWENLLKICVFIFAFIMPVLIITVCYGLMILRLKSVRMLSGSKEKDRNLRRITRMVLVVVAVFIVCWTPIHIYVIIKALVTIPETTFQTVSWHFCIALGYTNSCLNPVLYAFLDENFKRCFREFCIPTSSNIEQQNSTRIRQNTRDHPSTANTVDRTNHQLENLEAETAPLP
Sequence of κ-opioid receptor (P41145 whole entry): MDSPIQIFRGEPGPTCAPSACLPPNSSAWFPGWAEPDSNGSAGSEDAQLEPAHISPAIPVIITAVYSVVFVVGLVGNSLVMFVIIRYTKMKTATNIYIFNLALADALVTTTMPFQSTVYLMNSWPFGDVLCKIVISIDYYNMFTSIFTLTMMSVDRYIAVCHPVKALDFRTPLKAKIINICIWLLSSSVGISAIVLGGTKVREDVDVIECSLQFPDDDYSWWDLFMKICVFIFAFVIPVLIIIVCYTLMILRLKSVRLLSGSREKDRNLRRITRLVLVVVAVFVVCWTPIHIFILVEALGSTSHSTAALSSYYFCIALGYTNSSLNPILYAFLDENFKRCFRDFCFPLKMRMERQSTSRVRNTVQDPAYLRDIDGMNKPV

Turning to `C[C@H]1[C@H]2Cc3ccc(O)cc3[C@]1(CCN1CCC(N(C3CC3)S(=O)(=O)c3ccccc3)CC1)CCN2C` [Compound 7, N-cyclopropyl-N-(1-(2-((2R,6R,11R)-8-hydroxy-3,11-dimethyl-2,3,4,5-tetrahydro-2,6-methanobenzo[d]azocin-6(1H)-yl)ethyl)piperidin-4-yl)benzene-sulfonamide], the concentration giving a half-maximal response (EC50) came out at 83.1 ± 1.96 nM at μ-opioid receptor [1], 503 ± 116 nM on μ-opioid receptor [2] and 624 ± 65.9 nM on μ-opioid receptor [3]. The figures for the maximum response (Emax) at μ-opioid receptor [1], at μ-opioid receptor [2] and at μ-opioid receptor [3] were 99 ± 1%, 23.4 ± 1.33% and 54.5 ± 4.33%, respectively.
Turning to `C[C@H]1[C@H]2Cc3ccc(O)cc3[C@]1(CCNC(=O)Nc1ccc(F)cc1)CCN2CC1CC1` [Compound 18, 1-(2-((2R,6R,11R)-3-(cyclopropyl-methyl)-8-hydroxy-11-methyl-2,3,4,5-tetrahydro-2,6-methanobenzo[d]azocin-6(1H)-yl)ethyl)-3-(4-fluorophenyl)urea], at μ-opioid receptor [2], the 50% effective concentration (EC50) is 0.31 ± 0.063 nM and the Emax was found to be 4.38 ± 0.35%. Also, at μ-opioid receptor [3], the EC50 is 0.12 nM and the Emax turned out to be 22.4 ± 1.04%.
Taken in the same sequence, the figures for `C[C@H]1[C@H]2Cc3ccc(O)cc3[C@]1(CCNC(=O)NCc1ccccc1)CCN2CC1CC1` [Compound 21, 1-benzyl-3-(2-((2R,6R,11R)-3-(cyclopropylmethyl)-8-hydroxy-11-methyl-2,3,4,5-tetrahydro-2,6-methanobenzo[d]azocin-6(1H)-yl)ethyl)urea] were 0.38 ± 0.11 nM, 30.1 ± 0.81%, 0.28 ± 0.027 nM and 54.7 ± 2.63%.
As for `COc1ccc2c(c1)[C@]1(CCN3CCC(N(C4CC4)S(=O)(=O)c4ccc(Cl)cc4)CC3)CCN(C)[C@H](C2)[C@@H]1C` [Compound 53, 4-chloro-N-cyclopropyl-N-(1-(2-((2R,6R,11R)-8-methoxy-3,11-dimethyl-2,3,4,5-tetrahydro-2,6-methanobenzo-[d]azocin-6(1H)-yl)ethyl)piperidin-4-yl)-benzenesulfonamide], at κ-opioid receptor, the Emax was 13.3 ± 2.19% and the half-maximal effective concentration (EC50) was found to be 7000 ± 3060 nM. Besides, on μ-opioid receptor [1], the EC50 came out at 1250 ± 85.4 nM and the Emax amounted to 63.3 ± 2.03%.
As for `COc1ccc2c(c1)[C@]1(CCN(C)CCCN(C)C)CCN(C)[C@H](C2)[C@@H]1C` [Compound 54], at κ-opioid receptor, the Emax is 125 ± 1.53% and the EC50 is 9860 ± 349 nM. In addition, at μ-opioid receptor [1], the concentration for a half-maximal effect (EC50) stood at 18700 ± 1890 nM and the maximal effect (Emax) was 95 ± 2.65%.
In the case of `COc1ccc2c(c1)[C@]1(CCNCCCn3ccnc3)CCN(C)[C@H](C2)[C@@H]1C` [Compound 55, 3-(1H-imidazol-1-yl)-N-(2-((2R,6R,11R)-8-methoxy-3,11-dimethyl-2,3,4,5-tetrahydro-2,6-methanobenzo[d]azocin-6(1H)-yl)ethyl)propan-1-amine], on κ-opioid receptor, the Emax was 113 ± 1.45% and the EC50 was 14700 ± 1240 nM. On μ-opioid receptor [1], the EC50 was 14500 ± 653 nM and the maximal response (Emax) is 82 ± 2.65%.
Taken in the same sequence, the figures for `COC[C@@H]1CCCN1CC[C@]12CCN(C)[C@H](Cc3ccc(OC)cc31)[C@@H]2C` [Compound 56, (2R,6S,11R)-8-methoxy-6-(2-((S)-2-(methoxymethyl)pyrrolidin-1-yl)ethyl)-3,11-dimethyl-1,2,3,4,5,6-hexahydro-2,6-methanobenzo[d]azocine] were 94.7 ± 4.48%, 5490 ± 434 nM, 5990 ± 1220 nM and 72.3 ± 2.85%.
Taken in the same sequence, the figures for `COc1ccc2c(c1)[C@]1(CCNCCCN3CCCC3=O)CCN(C)[C@H](C2)[C@@H]1C` [Compound 57, 1-(3-((2-((2R,6R,11R)-8-methoxy-3,11-dimethyl-2,3,4,5-tetrahydro-2,6-methanobenzo-[d]azocin-6(1H)-yl)ethyl)amino)propyl)pyrrolidin-2-one] were 118 ± 2%, 11400 ± 994 nM, 11300 ± 435 nM and 70.7 ± 2.03%.
`COc1ccc2c(c1)[C@]1(CCN3CCC[C@@H]3C(=O)O)CCN(C)[C@H](C2)[C@@H]1C` [Compound 60, (2-((2R,6S,11R)-8-methoxy-3,11-dimethyl-2,3,4,5-tetrahydro-2,6-methanobenzo[d]azocin-6(1H)-yl)ethyl)-D-proline] registered a maximal response (Emax) on κ-opioid receptor of 97.7 ± 8.09%. In addition, on μ-opioid receptor [1], the midpoint of the response, the EC50, lay at 4910 ± 1080 nM and the Emax was 49 ± 3.61%.
`C[C@H]1[C@H]2Cc3ccc(O)cc3[C@]1(CCNC(=O)NS(=O)(=O)c1ccc(F)cc1)CCN2C` [Compound 66, 4-fluoro-N-((2-((2R,6R,11R)-8-hydroxy-3,11-dimethyl-2,3,4,5-tetrahydro-2,6-methanobenzo[d]azocin-6(1H)-yl)-ethyl)carbamoyl)benzenesul-fonamide]: at μ-opioid receptor [2], the half-maximal effective concentration (EC50) stood at 2290 ± 703 nM and the Emax came out at 15.9 ± 0.72%. Also, at μ-opioid receptor [3], the concentration for a half-maximal effect (EC50) stood at 174 ± 13.1 nM and the maximal effect (Emax) came out at 37.3 ± 0.88%.
Taken in the same sequence, the figures for `C[C@H]1[C@H]2Cc3ccc(O)cc3[C@]1(CCNC(=O)Nc1ccccc1)CCN2C` [Compound 68, 1-(2-((2R,6R,11R)-8-hydroxy-3,11-dimethyl-2,3,4,5-tetrahydro-2,6-methano-benzo[d]azocin-6(1H)-yl)ethyl)-3-phenylurea] were 18.9 ± 1.23 nM, 72.3 ± 0.88%, 28.5 ± 2.07 nM and 75.8 ± 2.39%.
Regarding `C[C@H]1[C@H]2Cc3ccc(O)cc3[C@]1(CCNS(=O)(=O)c1ccc(F)cc1)CCN2C` [Compound 69, 4-fluoro-N-(2-((2R,6S,11R)-8-hydroxy-3,11-dimethyl-2,3,4,5-tetrahydro-2,6-methanobenzo[d]azocin-6(1H)-yl)ethyl)-benzenesulfonamide], the EC50 stood at 2.97 ± 0.34 nM at μ-opioid receptor [2] and 5.42 ± 1.11 nM on μ-opioid receptor [3]. The Emax at μ-opioid receptor [2] worked out at 14.7 ± 0.88%; at μ-opioid receptor [3] it was 59.3 ± 1.2%.
Taken in the same sequence, the figures for `C[C@H]1[C@H]2Cc3ccc(O)cc3[C@]1(CCNC(=O)[C@@H]1CCC(=O)N1)CCN2C` [Compound 72, (S)-N-(2-((2R,6R,11R)-8-hydroxy-3,11-dimethyl-2,3,4,5-tetrahydro-2,6-methano-benzo[d]azocin-6(1H)-yl)ethyl)-5-oxopyrrolidine-2-carboxamide] were 267 ± 63.3 nM, 241 ± 56.7 nM, 5.8 ± 0.42% and 37.2 ± 1.8%.
Take `C[C@H]1[C@H]2Cc3ccc(O)cc3[C@]1(CCNC(=O)Nc1ccc(F)cc1)CCN2C` [Compound 76, 1-(4-fluorophenyl)-3-(2-((2R,6R,11R)-8-hydroxy-3,11-dimethyl-2,3,4,5-tetrahydro-2,6-methanobenzo[d]azocin-6(1H)-yl)ethyl)urea]: the EC50 on μ-opioid receptor [2] stood at 28.4 ± 3.98 nM; at μ-opioid receptor [3], 28.8 ± 10.5 nM. In addition, the maximal effect (Emax) on μ-opioid receptor [2] is 28.9 ± 1.69%; on μ-opioid receptor [3], 58.5 ± 2.78%.
Taken in the same sequence, the figures for `C[C@H]1[C@H]2Cc3ccc(O)cc3[C@]1(CCNC(=O)Nc1ccccc1F)CCN2C` [Compound 78, 1-(2-fluorophenyl)-3-(2-((2R,6R,11R)-8-hydroxy-3,11-dimethyl-2,3,4,5-tetrahydro-2,6-methanobenzo[d]azocin-6(1H)-yl)ethyl)urea] were 90.5 ± 15.4 nM, 33.5 ± 4.9 nM, 67 ± 3.71% and 71 ± 3.61%.
For the compound `C[C@H]1[C@H]2Cc3ccc(O)cc3[C@]1(CCNC(=O)Nc1cccc(F)c1)CCN2C` [Compound 79, 1-(3-fluorophenyl)-3-(2-((2R,6R,11R)-8-hydroxy-3,11-dimethyl-2,3,4,5-tetrahydro-2,6-methanobenzo[d]azocin-6(1H)-yl)ethyl)urea], on μ-opioid receptor [2], the half-maximal effective concentration (EC50) turned out to be 39.1 ± 7.13 nM and the Emax is 58.9 ± 7.55%. Besides, at μ-opioid receptor [3], the EC50 was 19.7 ± 1.11 nM and the maximum response (Emax) is 71.6 ± 5.96%.
Taken in the same sequence, the figures for `C[C@H]1[C@H]2Cc3ccc(O)cc3C1(CCNS(=O)(=O)N(C)C)CCN2C` [Compound 80] were 1180 ± 822 nM, 2.62 ± 0.36%, 134 ± 3.21 nM and 27.9 ± 0.47%.
Taken in the same sequence, the figures for `C[C@H]1[C@H]2Cc3ccc(O)cc3[C@]1(CCNC(=O)c1ccc(F)cc1)CCN2C` [Compound 83, 4-Fluoro-N-(2-((2R,6R,11R)-8-hydroxy-3,11-dimethyl-2,3,4,5-tetrahydro-2,6-methanobenzo[d]azocin-6(1H)-yl)ethyl)benzamide] were 13.8 ± 3.03 nM, 46.5 ± 1.93%, 13.6 ± 3.38 nM and 77.2 ± 3.52%.
Taken in the same sequence, the figures for `C[C@H]1[C@H]2Cc3ccc(O)cc3[C@]1(CCNC(=O)CCc1ccccc1)CCN2C` [Compound 85, N-(2-((2R,6R,11R)-8-hydroxy-3,11-dimethyl-2,3,4,5-tetrahydro-2,6-methanobenzo[d]azocin-6(1H)-yl)ethyl)-3-phenylpropanamide] were 6.55 ± 2.88 nM, 39.8 ± 0.77%, 6.51 ± 0.17 nM and 69.5 ± 2.23%.
In the case of `C[C@H]1[C@H]2Cc3ccc(O)cc3[C@]1(CCNC(=O)c1ccc(C(N)=O)cc1)CCN2C` [Compound 86, N-(2-((2R,6R,11R)-8-hydroxy-3,11-dimethyl-2,3,4,5-tetrahydro-2,6-methanobenzo[d]azocin-6(1H)-yl)ethyl)terephthalamide], at μ-opioid receptor [2], the EC50 worked out at 289 ± 91.8 nM and the maximal effect (Emax) worked out at 11.2 ± 0.69%. On μ-opioid receptor [3], the EC50 was determined as 252 ± 23.5 nM and the maximal effect (Emax) came to 48.2 ± 1.26%.
